# Source: patent publication US20260199325A1, “NOVEL SUBSTITUTED PYRAZINE-CARBOXAMIDE-IMIDAZOPYRIDINE DERIVATIVES” (Boehringer Ingelheim International GmbH, priority 2022, published 2026)
# Molecular target: T1, human metabotropic Glutamate 4 receptor (Homo sapiens, UniProt Q14833)
# T1 construct: expressed in transfected cells; host or cells: HEK293
# Experiment: In vitro testing of mGluR4 potency (Assay A), cAMP HTRF in HEK293 cells
# Format: cell-based
# Conditions: Table 2; HEK293 cell overexpressing human mGluR4; 10 uM L-Glutamic acid, 1 uM forskolin
# Description: A. In Vitro Testing of mGluR4 Potency
# The in vitro activity of the compounds according to the invention may be investigated as follows:
# The HEK293 cell overexpressing the human metabotropic Glutamate 4 receptor were thawed at 37° C. and immediately diluted with cell culture medium. After centrifugation, the cell pellet is re-suspended in medium and then distributed from a stirred spinner flask into the wells of the assay plate. The plates are incubated for one hour at room temperature before they are incubated for 24 hours at 37° C./5% C02. After washing the cells in the plate three times with 80 uL HBSS/HEPES buffer (10 uL buffer remained in the wells after washing), 5 uL per well of compounds diluted in HBSS/HEPES buffer containing 0.2% BSA (final concentration: 0.1%) and 1 mM IBMX (final concentration: 0.5 mM) are added to the wells of the assay plate. Thereafter 5 uL per well of L-Glutamic acid (final concentration: 10 uM), forskolin (final concentration: 1 uM) and 1 mM IBMX (final concentration: 0.5 mM) dissolved in HBSS/HEPES buffer containing 0.2% BSA (final concentration: 0.1%) are added to the assay plate (final DMSO concentration: 1%). Several wells of the assay plate are used either for the positive and the negative controls or for the cAMP standard curve. The assay plate is incubated for 30 minutes at room temperature. Then 5 ul per well of Anti-cAMP-Antibody-d2 solution and 5 ul per well of cAMP-Europium Cryptate dilution are added to all wells of the plate and the plate is incubated another 60 minutes light protected at room temperature. The emission at 615 nm and 665 nm (Excitation wavelength: 320 nm) are measured on the EnVision™ reader (PerkinElmer). The ratio between the emission at 665 nm and 615 is calculated by the reader. The whole assay is performed in the dark or under green light.
# The cAMP standard is prepared by diluting the cAMP stock solution with HBSS/Hepes buffer: 5 μl/well of the cAMP dilutions (in HBSS/Hepes buffer containing 1 mM IBMX and 0.2% BSA-final concentration: 0.5 mM IBMX and 0.1% BSA) are added to 10 ul/well HBSS/Hepes buffer plus 5 ul/well 4% DMSO in HBSS/Hepes containing 0.2% BSA (final DMSO concentration: 1%-like in the wells containing compounds) in the wells of the assay plate. The final cAMP concentrations in the assay plate were: 0, 0.17, 0.69, 2.78, 11.1, 44.5, 178, and 712 nM (two wells/cAMP concentration).
# Each assay microtiter plate contained also wells with vehicle controls instead of compound as controls for L-Glutamic acid induced signal (negative control; 100% CTL; 10 uM L-Glutamic acid+1 uM forskolin+0.5 mM IBMX+1% DMSO) and wells with vehicle controls without L-Glutamic acid as controls for non-specific changes in signal (positive control; 0% CTL; 0 uM L-Glutamic acid+1 uM forskolin+0.5 mM IBMX+1% DMSO).
# The analysis of the data is performed by the calculation the ratio between the emission at 665 nm and the emission at 615 nm (Em665/Em615 ratio). Thereafter the signals of the compounds are normalized using the positive and negative controls by the following formula:
# PoC=100×((Signal Sample−Positive Control)/(Negative Control−Positive Control))
# T1 sequence (Q14833 33-912): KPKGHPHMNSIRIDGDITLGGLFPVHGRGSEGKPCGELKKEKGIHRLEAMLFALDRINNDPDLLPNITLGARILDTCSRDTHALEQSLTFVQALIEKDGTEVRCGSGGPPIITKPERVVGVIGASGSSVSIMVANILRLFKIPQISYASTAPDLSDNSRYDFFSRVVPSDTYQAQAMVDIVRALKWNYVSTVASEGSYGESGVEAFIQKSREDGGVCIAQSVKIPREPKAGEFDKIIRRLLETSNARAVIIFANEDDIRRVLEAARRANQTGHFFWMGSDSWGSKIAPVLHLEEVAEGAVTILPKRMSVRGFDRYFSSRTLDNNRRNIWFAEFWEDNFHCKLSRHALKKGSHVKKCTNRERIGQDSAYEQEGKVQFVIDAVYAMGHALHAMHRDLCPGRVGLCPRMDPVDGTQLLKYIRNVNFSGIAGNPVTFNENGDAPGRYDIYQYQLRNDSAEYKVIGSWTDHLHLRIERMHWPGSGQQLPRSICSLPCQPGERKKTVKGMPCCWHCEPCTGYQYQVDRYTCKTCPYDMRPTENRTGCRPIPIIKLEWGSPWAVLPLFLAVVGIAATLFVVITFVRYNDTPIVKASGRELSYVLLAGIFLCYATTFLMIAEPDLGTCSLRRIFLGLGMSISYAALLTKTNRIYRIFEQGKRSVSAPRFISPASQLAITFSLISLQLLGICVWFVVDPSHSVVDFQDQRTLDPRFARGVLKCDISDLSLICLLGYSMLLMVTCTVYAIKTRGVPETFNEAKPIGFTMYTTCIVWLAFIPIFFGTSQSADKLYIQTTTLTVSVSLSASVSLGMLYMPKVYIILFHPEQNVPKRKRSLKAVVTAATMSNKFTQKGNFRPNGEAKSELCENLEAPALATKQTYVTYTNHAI
row,SMILES,IC50
1,"CO[C@@H](C)[C@H](NC(=O)c1cnc(C)cn1)c1nc2cc(Cl)cnc2n1C(C)C [Example 23, N-[(1R,2S)-1-[6-chloro-3-(propan-2-yl)-3H-imidazo[4,5-b]pyridin-2-yl]-2-methoxypropyl]-5-methylpyrazine-2-carboxamide]",10 nM
2,"CO[C@H](C)[C@H](NC(=O)c1cnc(C(F)F)cn1)c1nc2cc(C(F)(F)F)cnc2n1C(C)C [Example 24, 5-(difluoromethyl)-N-[(1R)-2-methoxy-1-[3-(propan-2-yl)-6-(trifluoromethyl)-3H-imidazo[4,5-b]pyridin-2-yl]propyl]pyrazine-2-carboxamide]",10 nM
3,"Cc1cnc(C(=O)N[C@H](c2nc3cc(Cl)cnc3n2C(C)C)C2(O)CCC2)cn1 [Example 25, N-[(R)-[6-chloro-3-(propan-2-yl)-3H-imidazo[4,5-b]pyridin-2-yl](1-hydroxycyclobutyl)methyl]-5-methylpyrazine-2-carboxamide]",12 nM
4,"Cc1c(C#N)cnc2c1nc([C@@H](NC(=O)c1cnc(C(F)F)cn1)C1(O)CCC1)n2C(C)C [Example 26, N-[(R)-[6-cyano-7-methyl-3-(propan-2-yl)-3H-imidazo[4,5-b]pyridin-2-yl](1-hydroxycyclobutyl)methyl]-5-(difluoromethyl)pyridazine-2-carboxamide]",13 nM
5,"CC(C)n1c([C@@H](NC(=O)c2cnc(C(F)F)cn2)C2CC2)nc2cc(C(F)(F)F)ncc21 [Example 27, N-[(S)-cyclopropyl[3-(propan-2-yl)-6-(trifluoromethyl)-3H-imidazo[4,5-c]pyridin-2-yl]methyl]-5-(difluoromethyl)pyrazine-2-carboxamide]",31 nM
6,"Cc1cnc(C(=O)N[C@H](c2nc3c(C)c(C#N)cnc3n2C(C)C)C2CC2)cn1 [Example 28, N-[(S)-[6-cyano-7-methyl-3-(propan-2-yl)-3H-imidazo[4,5-b]pyridin-2-yl](cyclopropyl)methyl]-5-methylpyrazine-2-carboxamide]",6 nM
7,"CC(C)n1c([C@@H](NC(=O)c2cnc(C(F)F)cn2)C2CCC2)nc2cc(C#N)cnc21 [Example 30, N-[(S)-[6-cyano-3-(propan-2-yl)-3H-imidazo[4,5-b]pyridin-2-yl](cyclobutyl)methyl]-5-(difluoromethyl)pyrazine-2-carboxamide]",14 nM
8,COc1c(C#N)cnc2c1nc([C@@H](NC(=O)c1cnc(C)cn1)C1CC1)n2C(C)C [Example 31],14 nM
9,"CC(C)n1c([C@@H](NC(=O)c2cnc(C(F)F)cn2)C2CC2)nc2cc(F)cnc21 [Example 32, N-[(S)-cyclopropyl[6-fluoro-3-(propan-2-yl)-3H-imidazo[4,5-b]pyridin-2-yl]methyl]-5-(difluoromethyl)pyrazine-2-carboxamide]",15 nM
10,"Cc1cnc(C(=O)N[C@@H](CC2CC2)c2nc3cc(C#N)c(C)nc3n2C(C)C)cn1 [Example 33, N-[(1S)-1-[6-cyano-5-methyl-3-(propan-2-yl)-3H-imidazo[4,5-b]pyridin-2-yl]-2-cyclopropylethyl]-5-methylpyrazine-2-carboxamide]",15 nM
11,"Cc1cnc(C(=O)N[C@H](c2nc3cc(Cl)cnc3n2C(C)C)[C@H]2CCCO2)cn1 [Example 34, N-[(R)-[6-chloro-3-(propan-2-yl)-3H-imidazo[4,5-b]pyridin-2-yl][(2R)-oxolan-2-yl]methyl]-5-methylpyrazine-2-carboxamide]",16 nM
12,"O=C(N[C@H](c1nc2cc(C(F)(F)F)ncc2n1CC(F)F)C1CC1)c1cnc(C(F)F)cn1 [Example 35, N-[(S)-cyclopropyl[3-(2,2-difluoroethyl)-6-(trifluoromethyl)-3H-imidazo[4,5-c]pyridin-2-yl]methyl]-5-(difluoromethyl)pyrazine-2-carboxamide]",18 nM
13,"Cc1c(C#N)cnc2c1nc([C@@H](NC(=O)c1cnc(C(F)F)cn1)[C@@H]1CCCO1)n2C(C)C [Example 36, N-[(R)-[6-cyano-7-methyl-3-(propan-2-yl)-3H-imidazo[4,5-b]pyridin-2-yl][(2S)-oxolan-2-yl]methyl]-5-(difluoromethyl)pyrazine-2-carboxamide]",18 nM
